Laboratory results published in publication PMC10906223 (JCI Insight, 2024).
Several values for one entry are separate records, joined by “and”; a condition that tells them apart may be missing. Equal values may be shown once.

Tests used:
EphA4 receptor = target: T1, EphA4 receptor (Mus musculus, UniProt Q03137); assay: ELISA: competition between WCDD301 and Ephrin-A5 Fc for binding to EphA4; details: for Bound Ephrin (WCDD301, 0.01 µM) / Bound Ephrin (WCDD301, 0.1 µM) / Bound Ephrin (WCDD301, 1 µM): Figure 1E; for Bound Ephrin-A5 (ELISA signal) / AUC of competition curve: Figure 1D; for AUC of competition curve: EphA4 3 μg/mL, mean ± SD
T1 construct: purchased R&D Systems 641-A4-200
Protocol: Wells of the protein A–coated microplate (Pierce, catalog 15132) were washed using 200 μL of binding buffer (PBS supplemented by 0.01% Tween 20). Recombinant mouse EphA4 Fc chimera protein (R&D Systems, catalog 641-A4-200) was reconstituted in 1× PBS (Genesee, catalog 25-507XB, pH 7.2 ± 0.1), diluted to 3 μg/mL using binding buffer, dispensed (100 μL) in each well, and rocked on a belly dancer shaker (3 hours at room temperature, RT). Following 3 washes in the binding buffer, blocking was done using blocking buffer (5% BSA in binding buffer) for 3 hours at RT. Then, after 5 washes, the reconstituted recombinant mouse Ephrin-A5 Fc (R&D Systems, catalog 7396-EA-050) was added (100 μL) into each well and rocked for 2.5 hours on the shaker (Ephrin-A5 Fc concentrations were used as described in the Results section). After 7 washes using binding buffer, alkaline phosphatase–conjugated antibody against Ephrin-A5 was diluted (1:1,000) in the binding buffer plus 2% BSA, added to each well, and incubated at 4°C, overnight. Conjugation of the anti-EFNA5 antibody (Abnova, catalog H00001946-M02; 0.5 mg/mL; target sequence 114–203) was done using Abcam conjugation kit (catalog ab102850) based on the manufacturer’s instruction. After washing 7 times, p-nitrophenyl phosphate tablet (MilliporeSigma, catalog N1891) was reconstituted in 5 mL of PBS and added to each well (100 μL). Following 1 hour shaking at RT in the dark, reaction was stopped by adding 100 μL of 3N NaOH. OD was read at 405 nm within 5 minutes using the microplate reader (Agilent BioTek Cytation 5).
We took following the approaches to assay competition between Ephrin-A5 and WCDD301 for binding to the EphA4 receptor. Wells of the microplate were coated by a fixed level of EphA4 Fc (3.5 pmol/well), and competition experiments with Ephrin-A5 and WCDD301 were performed as listed in Supplemental Tables 3 and 4. We determined the KD value for each condition by means of Michaelis-Menten best fit analysis in GraphPad Prism software version 4. To control for potential interaction between WCDD301 and Ephrin-A5 Fc, we coated wells of a microplate using Ephrin-A5 Fc and then incubated them with or without WCDD301 (0.2 μM).

[1] = Pharmacokinetics in CD-1 mice, subcutaneous or intravenous; format: in vivo, mouse; details: for Plasma concentration (Supplemental Figure 5A) / Plasma concentration (Supplemental Figure 5B): individual mice M1-M3, route not given
Protocol: CD-1 mice were injected with WCDD301 subcutaneously (1 mg/kg, n = 3) or intravenously (1 mg/kg, n = 3), and blood was collected from saphenous vein directly into K2-EDTA–containing microcentrifuge tubes at 5, 10, and 15 minutes postdosing. An aliquot of 20 μL plasma was deproteinized using 200 μL of internal standard solution (100 ng/mL of labetalol and tolbutamide in acetonitrile), incubated for 10 minutes at RT, and centrifuged at 1,800g for 10 minutes at 4°C. Following 1:1 dilution of the supernatant with deionized water, 1 μL of the diluted sample was used for LC-MS/MS analysis (TripleQuad 6500, column: ACQUITY UPLC BEH C18 2.1 × 50 mm, 1.7 μm; flow rate: 0.6 mL/min, retention time: 1.60/1.78 WCDD301/labetalol).

diabetic NOD mice [2] = assay: Hematoxylin-Eosin staining of pancreatic islets of NOD mice; format: in vivo, mouse; details: WCDD301-treated diabetic NOD mice
diabetic NOD mice [3] = assay: Daily body weight in NOD mice; format: in vivo, mouse; details: for Daily body weight (Figure 7F): Diabetic, WCDD301 treated, in g (unit assumed)
Protocol: We preweighed WCDD301 into microfuge tubes and reconstituted it using deionized water. Using a 10 μL pipette tip, we placed the calculated dose of WCDD301 (at the volume range of 1–1.5 μL) within the center of pearls. WCDD301 was placed into pearls 30–45 minutes before administration. For oral administration of pearls, we designed an applicator using a disposable plastic transfer pipette and syringe plunger lubricated with olive oil. Food intake and body weight in each experimental group (diabetic WCDD301-treated, diabetic placebo-treated, and nondiabetic placebo-treated NOD mice) were monitored daily for 4 weeks. Urine glucose was measured from individually caged NOD mice (nondiabetic placebo treated n = 2, diabetic placebo treated n = 2, and diabetic WCDD301 treated n = 4, 21–23 weeks old) with metabolic cages. Urine glucose was monitored every 24 hours for 10 days by semiquantitative measurements (P-STICKS, Millpledge Veterinary).

T1 sequence (Q03137 with tags, fused parts or gaps limits assumed): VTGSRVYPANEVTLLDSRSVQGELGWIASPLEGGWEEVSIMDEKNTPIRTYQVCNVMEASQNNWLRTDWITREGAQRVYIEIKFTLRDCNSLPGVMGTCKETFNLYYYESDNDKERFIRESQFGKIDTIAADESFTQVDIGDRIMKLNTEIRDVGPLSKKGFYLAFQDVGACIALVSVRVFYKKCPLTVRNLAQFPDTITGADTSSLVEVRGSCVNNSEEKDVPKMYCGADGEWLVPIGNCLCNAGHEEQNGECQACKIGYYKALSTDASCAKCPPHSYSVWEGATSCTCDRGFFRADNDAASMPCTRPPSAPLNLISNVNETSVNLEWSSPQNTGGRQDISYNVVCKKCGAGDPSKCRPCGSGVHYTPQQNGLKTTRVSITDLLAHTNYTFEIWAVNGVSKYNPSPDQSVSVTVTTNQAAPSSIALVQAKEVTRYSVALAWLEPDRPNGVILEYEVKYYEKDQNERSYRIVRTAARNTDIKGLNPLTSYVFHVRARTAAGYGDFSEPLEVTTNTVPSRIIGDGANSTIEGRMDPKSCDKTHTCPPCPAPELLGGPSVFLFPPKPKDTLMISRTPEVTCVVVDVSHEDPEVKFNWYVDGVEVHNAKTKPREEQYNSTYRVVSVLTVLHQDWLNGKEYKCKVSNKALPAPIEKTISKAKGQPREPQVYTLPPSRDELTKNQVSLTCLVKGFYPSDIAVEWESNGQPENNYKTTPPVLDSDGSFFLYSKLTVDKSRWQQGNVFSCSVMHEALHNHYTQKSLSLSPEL

CC(=O)OCC(N)(COC(C)=O)COC(C)=O [WCDD301, 2-(acetoxymethyl)-2-aminopropane-1,3-diyl diacetate]
Competition with Ephrin-A5 for EphA4 (EphA4 receptor; AUC analysis): competes with the natural ligand, Ephrin-A5 | Bound Ephrin (WCDD301, 0.01 µM) (EphA4 receptor; Ephrin-A5 Fc 2 nM): 0.051 and 0.05 and 0.052 | Bound Ephrin (WCDD301, 0.1 µM) (EphA4 receptor; Ephrin-A5 Fc 2 nM): 0.05 and 0.06 | Bound Ephrin (WCDD301, 1 µM) (EphA4 receptor; Ephrin-A5 Fc 2 nM): 0.03 and 0.04 | Bound Ephrin (WCDD301, 0.01 µM) (EphA4 receptor; Ephrin-A5 Fc 4 nM): 0.061 and 0.07 and 0.064 | Bound Ephrin (WCDD301, 0.1 µM) (EphA4 receptor; Ephrin-A5 Fc 4 nM): 0.062 and 0.064 and 0.07 | Bound Ephrin (WCDD301, 1 µM) (EphA4 receptor; Ephrin-A5 Fc 4 nM): 0.04 and 0.05 | Bound Ephrin (WCDD301, 0.01 µM) (EphA4 receptor; Ephrin-A5 Fc 8 nM): 0.142 and 0.122 and 0.156 | Bound Ephrin (WCDD301, 0.1 µM) (EphA4 receptor; Ephrin-A5 Fc 8 nM): 0.119 and 0.121 and 0.098 | Bound Ephrin (WCDD301, 1 µM) (EphA4 receptor; Ephrin-A5 Fc 8 nM): 0.1 and 0.104 and 0.11 | Bound Ephrin (WCDD301, 0.01 µM) (EphA4 receptor; Ephrin-A5 Fc 16 nM): 0.18 and 0.189 and 0.209 | Bound Ephrin (WCDD301, 0.1 µM) (EphA4 receptor; Ephrin-A5 Fc 16 nM): 0.141 and 0.137 and 0.119 | Bound Ephrin (WCDD301, 1 µM) (EphA4 receptor; Ephrin-A5 Fc 16 nM): 0.145 and 0.115 and 0.125 | Bound Ephrin (WCDD301, 0.01 µM) (EphA4 receptor; Ephrin-A5 Fc 32 nM): 0.265 and 0.289 and 0.221 | Bound Ephrin (WCDD301, 0.1 µM) (EphA4 receptor; Ephrin-A5 Fc 32 nM): 0.21 and 0.269 and 0.243 | Bound Ephrin (WCDD301, 1 µM) (EphA4 receptor; Ephrin-A5 Fc 32 nM): 0.234 and 0.189 and 0.171 | Bound Ephrin (WCDD301, 0.01 µM) (EphA4 receptor; Ephrin-A5 Fc 64 nM): 0.321 and 0.34 and 0.365 | Bound Ephrin (WCDD301, 0.1 µM) (EphA4 receptor; Ephrin-A5 Fc 64 nM): 0.301 and 0.29 and 0.27 | Bound Ephrin (WCDD301, 1 µM) (EphA4 receptor; Ephrin-A5 Fc 64 nM): 0.28 and 0.27 and 0.26 | Bound Ephrin-A5 (ELISA signal) (EphA4 receptor; WCDD301 0.0625 µM, Ephrin-A5 (2 nM)): 0.1 and 0.12 | Bound Ephrin-A5 (ELISA signal) (EphA4 receptor; WCDD301 0.0625 µM, Ephrin-A5 (4 nM), c4-c6): 0.217 and 0.196 and 0.19 | Bound Ephrin-A5 (ELISA signal) (EphA4 receptor; WCDD301 0.0625 µM, Ephrin-A5 (4 nM), third group c7-c9): 0.23 and 0.236 and 0.246 | Bound Ephrin-A5 (ELISA signal) (EphA4 receptor; WCDD301 0.0625 µM, Ephrin-A5 (8 nM)): 0.237 and 0.247 and 0.265 | Bound Ephrin-A5 (ELISA signal) (EphA4 receptor; WCDD301 0.125 µM, Ephrin-A5 (2 nM)): 0.086 and 0.108 and 0.1 | Bound Ephrin-A5 (ELISA signal) (EphA4 receptor; WCDD301 0.125 µM, Ephrin-A5 (4 nM), c4-c6): 0.202 and 0.18 and 0.187 | Bound Ephrin-A5 (ELISA signal) (EphA4 receptor; WCDD301 0.125 µM, Ephrin-A5 (4 nM), third group c7-c9): 0.208 and 0.216 | Bound Ephrin-A5 (ELISA signal) (EphA4 receptor; WCDD301 0.125 µM, Ephrin-A5 (8 nM)): 0.236 and 0.233 and 0.234 | Bound Ephrin-A5 (ELISA signal) (EphA4 receptor; WCDD301 0.25 µM, Ephrin-A5 (2 nM)): 0.072 and 0.073 and 0.082 | Bound Ephrin-A5 (ELISA signal) (EphA4 receptor; WCDD301 0.25 µM, Ephrin-A5 (4 nM), c4-c6): 0.148 and 0.141 and 0.169 | Bound Ephrin-A5 (ELISA signal) (EphA4 receptor; WCDD301 0.25 µM, Ephrin-A5 (4 nM), third group c7-c9): 0.201 and 0.205 and 0.203 | Bound Ephrin-A5 (ELISA signal) (EphA4 receptor; WCDD301 0.25 µM, Ephrin-A5 (8 nM)): 0.222 and 0.22 and 0.212 | AUC of competition curve (EphA4 receptor; at 2 nM): 0.025 ± 0.0011 AU | AUC of competition curve (EphA4 receptor; at 4 nM): 0.0469 ± 0.0014 AU | AUC of competition curve (EphA4 receptor; at 6 nM): 0.0554 ± 0.0006 AU | AUC of competition curve (EphA4 receptor; at 8 nM): 0.0617 ± 0.0011 AU | Plasma concentration (Supplemental Figure 5A) ([1]; 5 min): 64.8 and 47.6 and 146 | Plasma concentration (Supplemental Figure 5B) ([1]; 5 min): 57.9 and 180 and 135 | Plasma concentration (Supplemental Figure 5A) ([1]; 10 min): 44.3 and 27.1 and 52.9 | Plasma concentration (Supplemental Figure 5B) ([1]; 10 min): 11 and 18.9 and 12.4 | Plasma concentration (Supplemental Figure 5A) ([1]; 15 min): 31.3 and 22.7 and 21.7 | Plasma concentration (Supplemental Figure 5B) ([1]; 15 min): 0 and 6.64 and 3.56 | Plasma concentration, subcutaneous compared with intravenous ([1]; CD-1 mice, 1 mg/kg, 15 minutes): increased plasma concentrations of WCDD301 at 15 minutes following subcutaneous injection | Mononuclear cell infiltration and edema (Hematoxylin-Eosin) (diabetic NOD mice [2]): no mononuclear infiltration or apparent edema | Daily body weight (Figure 7F) (diabetic NOD mice [3]; Day 1): 22.8 and 23.7 and 24.1 and 24.7 | Daily body weight (Figure 7F) (diabetic NOD mice [3]; Day 2): 23 and 23.9 and 24.3 and 25.3 | Daily body weight (Figure 7F) (diabetic NOD mice [3]; Day 3): 22.6 and 23.4 and 23.9 and 25.3 | Daily body weight (Figure 7F) (diabetic NOD mice [3]; Day 7): 22.3 and 23.1 and 23.5 and 24.7 | Daily body weight (Figure 7F) (diabetic NOD mice [3]; Day 8): 22.3 and 23.1 and 23.5 and 24.8 | Daily body weight (Figure 7F) (diabetic NOD mice [3]; Day 9): 22.6 and 23.4 and 23.9 and 24.8 | Daily body weight (Figure 7F) (diabetic NOD mice [3]; Day 10): 22.3 and 23.1 and 23.5 and 24.6 | Daily body weight (Figure 7F) (diabetic NOD mice [3]; Day 11): 22.3 and 23.1 and 23.5 and 25.1 | Daily body weight (Figure 7F) (diabetic NOD mice [3]; Day 12): 22.4 and 23.2 and 23.7 and 25.4 | Daily body weight (Figure 7F) (diabetic NOD mice [3]; Day 13): 22.5 and 23.3 and 23.8 and 25.3 | Daily body weight (Figure 7F) (diabetic NOD mice [3]; Day 14): 22.6 and 23.4 and 23.9 and 25.2 | Daily body weight (Figure 7F) (diabetic NOD mice [3]; Day 15): 22.9 and 23.8 and 24.2 and 24.7 | Daily body weight (Figure 7F) (diabetic NOD mice [3]; Day 16): 23.1 and 24 and 24.4 and 25.6 | Daily body weight (Figure 7F) (diabetic NOD mice [3]; Day 17): 23 and 23.9 and 24.3 and 25.3 | Daily body weight (Figure 7F) (diabetic NOD mice [3]; Day 18): 22.8 and 23.7 and 24.1 and 25.2 | Daily body weight (Figure 7F) (diabetic NOD mice [3]; Day 19): 22.4 and 23.2 and 23.7 and 25.1 | Daily body weight (Figure 7F) (diabetic NOD mice [3]; Day 20): 22.6 and 23.4 and 23.9 and 25.7 | Daily body weight (Figure 7F) (diabetic NOD mice [3]; Day 21): 22.5 and 23.3 and 23.8 and 25.1 | Daily body weight (Figure 7F) (diabetic NOD mice [3]; Day 22): 22.6 and 23.4 and 23.9 and 25.1 | Daily body weight (Figure 7F) (diabetic NOD mice [3]; Day 23): 22.4 and 23.2 and 23.7 and 25.1 | Daily body weight (Figure 7F) (diabetic NOD mice [3]; Day 24): 22.5 and 23.3 and 23.8 and 25.1 | Daily body weight (Figure 7F) (diabetic NOD mice [3]; Day 25): 22.5 and 23.3 and 23.8 and 25.2 | Daily body weight (Figure 7F) (diabetic NOD mice [3]; Day 26): 22.3 and 23.1 and 23.5 and 25.4 | Daily body weight (Figure 7F) (diabetic NOD mice [3]; Day 27): 22.3 and 23.1 and 23.5 and 25.2 | Daily body weight (Figure 7F) (diabetic NOD mice [3]; Day 28): 22.8 and 23.7 and 24.1 and 25.4 | Body weight, daily monitoring (diabetic NOD mice [3]; diabetic WCDD301-treated mice): phenotypes similar to nondiabetic placebo-treated mice
